Assay results from US20030236306A1, “Stabilized formulations of alpha adrenergic receptor antagonists and the uses thereof” (priority 2002, published 2003).
Structures can show the parent of a compound that is named as a salt.

Tested on: local anesthesia by 2% polocaine (mepivacaine hydrochloride) with levonordefrin
Assay: Reversal of local anesthesia by LARA versus saline vehicle, bilateral injection in human subjects
Format: in vivo
Settings: three subjects, 0.05 mg/ml phentolamine mesylate (0.08 mg)
Description: An injection of the physiological saline vehicle (without phentolamine mesylate) served as the control. […] This was followed by injection of the phentolamine mesylate containing local anesthetic reversal agent (LARA) into one side of the oral cavity, and injection of the saline vehicle (control) solution into the opposite side of the oral cavity. The time to reversal of the local anesthetic effect on both sides was then recorded to determine whether there is a difference between the two sides.
The local anesthetic used was 2% polocaine (mepivacaine hydrochloride) with levonordefrin (1:20,000=0.05 mg/ml) (levonordefrin injection, USP) (Astra USA, Inc., Westborough, Mass. 01581). Levonordefrin is a sympathomimetic amine with a pharmacological profile similar to that of epinephrine, but with a lower potency.
Three healthy, male human subjects, age 34-50, volunteered to have local anesthetic injected in the mouth bilaterally under the lip in an easily repeatable location. The exact time of each injection was recorded. The position chosen was above (apical) the prominence of the root of the upper cuspid teeth. This is a common site selected to numb the cuspids, lateral incisors and upper lip. The volume of the local anesthetic injected was 1.7+0.1 ml on each side of the mouth. […]

Cc1ccc(N(CC2=NCCN2)c2cccc(O)c2)cc1 [Phentolamine Mesylate, phentolamine mesylate]
side-effects: no side-effects of any kind
